Measured values taken from publication PMC8760370, “Combinatorial inhibition of BTK, PI3K-AKT and BRD4-MYC as a strategy for treatment of mantle cell lymphoma” (Molecular Biomedicine, 2022).
Where two headings read alike, the source gives them in different places.

Tests used:
[1] = tested on: BTK and AKT phosphorylation; assay: Inhibitor washout assay, Mino cells; assay type: cell-based, human; settings: 1 h treatment, washes with PBS
Description: The BCR pathways in the washed cells were stimulated with 10 μg/mL of goat F(ab’)2 anti-human IgM antibody, and the cells were harvested and lysed. The resulting lysates were analyzed by western blot.

[2] = tested on: Mino cells; assay: FITC Annexin V apoptosis assay, Mino; assay type: cell-based, human; settings: 5 μM, 24 h
Description: Jeko-1 and Mino cells were seeded at a density of 2x10^6 cells and incubated overnight. […] Cells were harvested and washed twice with cold PBS, and then labeled with Annexin V-FITC and PI (BD Pharmingen, Cat # 556419) or Annexin APC (Thermo Fisher, Cat # A35110) according to the manufacturer’s protocol (BD Pharmingen). The labeled cells were analyzed using BD Accuri C6 Flow cytometer. Experiments were performed in duplicate.

[3] = tested on: JeKo-1 BTK C481S cells; assay: Cell viability assay, JeKo-1 BTK C481S; assay type: cell-based; settings: Homo sapiens, JeKo-1, 48 h
Description: (§2) Cells were treated with DMSO (0.1% final) or increasing concentrations of the indicated inhibitors for 48 h. 100 μL of Alamar blue (ThermoFisher Scientific) and Cell titer Glow assay reagent (Promega Cat # G9241) was added to each well, and the cells were incubated for 10 min at room temperature. Luminescence signal was measured in a VarioScan multimode reader. For Alamar Blue, fluorescence signals were read (emission at 590 nm after excitation at 560 nm). Averaged values were normalized as a percentage of DMSO (control) and analyzed by nonlinear regression then plotted for dose response using GraphPad Prism (GraphPad Software, Inc.). Experiments were performed in triplicate.

[4] = tested on: JeKo-1 cells; assay: FITC Annexin V apoptosis assay, JeKo-1; assay type: cell-based, human; settings: JeKo-1, 5 μM, 24 h
Description: Jeko-1 and Mino cells were seeded at a density of 2x10^6 cells and incubated overnight. […] The labeled cells were analyzed using BD Accuri C6 Flow cytometer. Experiments were performed in duplicate.

[5] = tested on: Mino cells; assay: Cell viability assay (alamarBlue / CellTiter-Glo), Mino; assay type: cell-based; settings: Homo sapiens, 48 h, read-out: IC50, anti-proliferative activity, Mino
Description: as §2

[6] = tested on: relapsed/refractory (R/R) MCL patients; settings: R/R MCL patients treated with Ibrutinib; cited from earlier work
[7] = tested on: JeKo-1 cells; assay: Cell viability assay (alamarBlue / CellTiter-Glo), JeKo-1; assay type: cell-based; settings: Homo sapiens, JeKo-1, 48 h; read-out: IC50, anti-proliferative activity, JeKo-1
Description: as §2

[8] = tested on: Mino BTK C481S cells; assay: Cell viability assay, Mino BTK C481S; assay type: cell-based; settings: Homo sapiens, 48 h
Description: as §2

[9] = molecular target: T1, BTK C481S (Ibrutinib-resistant mutant) (Homo sapiens, UniProt Q06187, C481S); assay: Kinase activity assay, BTK C481S; assay type: biochemical
T1 construct: purchased Reaction Biology (contract assay)

[10] = molecular target: T2, PI3Kγ (Homo sapiens, UniProt P48736); assay: Adapta kinase activity assay, PI3Kγ; assay type: biochemical
T2 construct: purchased ThermoFisher Scientific (contract assay)
Description: (§1) Adapta kinase activity assays were carried out by ThermoFisher Scientific (Waltham, MA) to measure IC50 of the indicated inhibitors for PI3K isoforms. Kinase activity assays were carried out by Reaction Biology (Malvern, PA) to measure IC50 of the indicated inhibitors for BTK WT and BTK C481S (Ibrutinib-resistant mutant). Alpha Screen assays were carried out by Reaction Biology (Malvern, PA) to measure IC50 of the indicated inhibitors for His-tagged BRD4 BD1 and BD2 bromodomains.

[11] = molecular target: T3, BTK WT (Homo sapiens, UniProt Q06187); assay: Kinase activity assay, BTK WT; assay type: biochemical
T3 construct: purchased Reaction Biology (contract assay)

[12] = molecular target: T4, PI3Kδ (Homo sapiens, UniProt O00329); assay: Adapta kinase activity assay, PI3Kδ; assay type: biochemical
T4 construct: purchased ThermoFisher Scientific (contract assay)
Description: as §1

[13] = molecular target: T5, PI3Kα (Homo sapiens, UniProt P42336); assay: Adapta kinase activity assay, PI3Kα; assay type: biochemical
T5 construct: purchased ThermoFisher Scientific (contract assay)
Description: as §1

T5 sequence (P42336 whole entry): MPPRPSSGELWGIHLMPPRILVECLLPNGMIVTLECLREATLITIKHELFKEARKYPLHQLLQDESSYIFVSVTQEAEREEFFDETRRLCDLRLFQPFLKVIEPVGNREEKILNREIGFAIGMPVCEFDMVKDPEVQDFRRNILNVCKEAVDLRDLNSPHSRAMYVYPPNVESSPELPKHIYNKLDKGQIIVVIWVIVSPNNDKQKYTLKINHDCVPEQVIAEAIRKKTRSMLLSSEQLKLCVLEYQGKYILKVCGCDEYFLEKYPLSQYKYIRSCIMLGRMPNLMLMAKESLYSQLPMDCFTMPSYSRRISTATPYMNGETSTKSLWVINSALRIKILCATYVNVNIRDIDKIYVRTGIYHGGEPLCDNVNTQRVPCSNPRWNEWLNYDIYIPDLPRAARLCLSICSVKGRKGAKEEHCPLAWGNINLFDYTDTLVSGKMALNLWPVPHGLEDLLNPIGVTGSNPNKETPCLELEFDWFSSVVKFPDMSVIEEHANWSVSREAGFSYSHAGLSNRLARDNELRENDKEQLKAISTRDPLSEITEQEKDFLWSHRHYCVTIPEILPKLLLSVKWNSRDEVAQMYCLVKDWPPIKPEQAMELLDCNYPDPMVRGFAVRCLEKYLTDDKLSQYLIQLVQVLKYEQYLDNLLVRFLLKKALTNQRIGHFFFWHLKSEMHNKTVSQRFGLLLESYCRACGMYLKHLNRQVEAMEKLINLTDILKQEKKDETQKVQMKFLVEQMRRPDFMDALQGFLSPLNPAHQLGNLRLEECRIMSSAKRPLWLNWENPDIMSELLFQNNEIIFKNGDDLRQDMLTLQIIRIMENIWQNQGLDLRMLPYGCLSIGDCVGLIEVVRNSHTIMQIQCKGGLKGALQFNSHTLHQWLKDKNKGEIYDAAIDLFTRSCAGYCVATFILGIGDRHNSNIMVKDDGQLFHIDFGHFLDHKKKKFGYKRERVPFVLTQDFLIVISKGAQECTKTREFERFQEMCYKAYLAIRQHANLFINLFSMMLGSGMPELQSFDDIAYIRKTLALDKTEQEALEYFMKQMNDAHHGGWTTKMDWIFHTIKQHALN
T5 sequence (P27986 whole entry partner): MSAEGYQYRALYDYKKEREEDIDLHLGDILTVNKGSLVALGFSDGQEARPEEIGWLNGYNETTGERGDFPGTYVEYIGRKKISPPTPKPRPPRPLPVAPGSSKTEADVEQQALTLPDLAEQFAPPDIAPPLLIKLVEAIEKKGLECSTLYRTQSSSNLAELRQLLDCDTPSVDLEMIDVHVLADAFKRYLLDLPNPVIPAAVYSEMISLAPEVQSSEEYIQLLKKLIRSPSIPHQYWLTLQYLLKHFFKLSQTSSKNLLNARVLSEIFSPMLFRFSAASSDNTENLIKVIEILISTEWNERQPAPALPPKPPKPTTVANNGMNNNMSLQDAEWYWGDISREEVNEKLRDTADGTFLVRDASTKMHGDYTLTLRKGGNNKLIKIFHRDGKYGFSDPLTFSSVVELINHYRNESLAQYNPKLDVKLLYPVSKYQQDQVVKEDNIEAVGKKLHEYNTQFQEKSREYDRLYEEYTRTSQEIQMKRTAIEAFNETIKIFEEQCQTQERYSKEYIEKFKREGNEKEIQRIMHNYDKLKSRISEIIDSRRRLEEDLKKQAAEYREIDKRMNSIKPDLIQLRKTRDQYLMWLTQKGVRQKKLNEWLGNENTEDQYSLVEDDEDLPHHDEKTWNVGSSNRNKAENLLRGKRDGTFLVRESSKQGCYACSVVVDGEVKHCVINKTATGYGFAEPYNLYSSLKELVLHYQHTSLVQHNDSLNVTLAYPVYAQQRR
T2 sequence (P48736 whole entry): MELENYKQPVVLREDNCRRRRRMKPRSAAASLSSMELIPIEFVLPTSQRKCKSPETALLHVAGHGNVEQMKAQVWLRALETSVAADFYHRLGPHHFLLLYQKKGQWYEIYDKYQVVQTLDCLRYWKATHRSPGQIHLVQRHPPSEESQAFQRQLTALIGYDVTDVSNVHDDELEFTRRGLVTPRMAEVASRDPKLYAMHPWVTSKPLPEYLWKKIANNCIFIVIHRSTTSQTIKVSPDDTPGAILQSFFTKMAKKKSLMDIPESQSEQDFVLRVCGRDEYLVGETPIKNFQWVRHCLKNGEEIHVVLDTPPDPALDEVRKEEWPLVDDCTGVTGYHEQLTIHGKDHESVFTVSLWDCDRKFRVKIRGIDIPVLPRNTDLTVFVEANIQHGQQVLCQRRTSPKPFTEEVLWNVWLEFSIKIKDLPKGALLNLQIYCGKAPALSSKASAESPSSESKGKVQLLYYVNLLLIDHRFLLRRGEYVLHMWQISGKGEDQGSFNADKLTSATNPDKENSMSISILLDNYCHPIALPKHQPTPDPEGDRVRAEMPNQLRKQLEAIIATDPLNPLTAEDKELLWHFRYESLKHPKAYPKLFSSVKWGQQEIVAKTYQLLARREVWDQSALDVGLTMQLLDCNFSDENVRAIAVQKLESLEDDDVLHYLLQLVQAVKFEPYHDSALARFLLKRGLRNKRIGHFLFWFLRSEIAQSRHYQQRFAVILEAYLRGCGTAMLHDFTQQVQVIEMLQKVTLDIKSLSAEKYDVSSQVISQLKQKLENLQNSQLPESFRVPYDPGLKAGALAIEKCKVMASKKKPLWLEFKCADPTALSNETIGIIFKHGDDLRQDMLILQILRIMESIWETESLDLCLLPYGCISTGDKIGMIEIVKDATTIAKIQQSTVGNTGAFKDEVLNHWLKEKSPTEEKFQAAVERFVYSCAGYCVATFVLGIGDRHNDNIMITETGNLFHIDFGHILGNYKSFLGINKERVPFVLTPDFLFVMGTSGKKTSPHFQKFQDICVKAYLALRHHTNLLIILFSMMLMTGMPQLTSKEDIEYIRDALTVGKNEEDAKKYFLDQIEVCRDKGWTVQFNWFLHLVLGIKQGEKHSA
T4 sequence (O00329 whole entry): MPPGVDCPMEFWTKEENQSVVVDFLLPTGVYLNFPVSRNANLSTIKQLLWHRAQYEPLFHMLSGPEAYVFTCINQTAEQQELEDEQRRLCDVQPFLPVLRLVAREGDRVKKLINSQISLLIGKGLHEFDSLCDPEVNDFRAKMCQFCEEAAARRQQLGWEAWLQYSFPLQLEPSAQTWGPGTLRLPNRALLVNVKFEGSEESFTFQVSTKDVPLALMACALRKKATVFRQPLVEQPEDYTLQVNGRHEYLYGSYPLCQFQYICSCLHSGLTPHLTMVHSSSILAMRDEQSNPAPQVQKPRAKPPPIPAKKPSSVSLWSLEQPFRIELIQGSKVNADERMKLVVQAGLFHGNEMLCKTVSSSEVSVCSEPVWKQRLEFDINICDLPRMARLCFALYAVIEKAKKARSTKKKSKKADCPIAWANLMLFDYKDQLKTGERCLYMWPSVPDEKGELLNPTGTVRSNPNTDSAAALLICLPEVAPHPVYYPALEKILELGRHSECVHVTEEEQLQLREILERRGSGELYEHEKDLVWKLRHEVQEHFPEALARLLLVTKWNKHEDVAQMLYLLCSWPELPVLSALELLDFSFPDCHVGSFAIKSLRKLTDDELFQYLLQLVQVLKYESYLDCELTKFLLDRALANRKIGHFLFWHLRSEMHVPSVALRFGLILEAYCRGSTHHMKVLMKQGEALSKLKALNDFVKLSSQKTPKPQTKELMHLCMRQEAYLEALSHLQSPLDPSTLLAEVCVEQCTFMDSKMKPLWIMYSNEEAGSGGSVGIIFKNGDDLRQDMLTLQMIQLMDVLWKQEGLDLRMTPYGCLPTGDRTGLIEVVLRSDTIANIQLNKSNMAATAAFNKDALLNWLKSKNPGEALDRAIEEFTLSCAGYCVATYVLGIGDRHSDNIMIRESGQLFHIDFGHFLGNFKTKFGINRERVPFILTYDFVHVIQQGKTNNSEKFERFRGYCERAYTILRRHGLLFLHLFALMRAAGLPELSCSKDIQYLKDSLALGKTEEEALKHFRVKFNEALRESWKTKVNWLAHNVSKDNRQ
T4 sequence (P27986 whole entry partner): as the sequence (P27986 whole entry partner) above
T3 sequence (Q06187 whole entry): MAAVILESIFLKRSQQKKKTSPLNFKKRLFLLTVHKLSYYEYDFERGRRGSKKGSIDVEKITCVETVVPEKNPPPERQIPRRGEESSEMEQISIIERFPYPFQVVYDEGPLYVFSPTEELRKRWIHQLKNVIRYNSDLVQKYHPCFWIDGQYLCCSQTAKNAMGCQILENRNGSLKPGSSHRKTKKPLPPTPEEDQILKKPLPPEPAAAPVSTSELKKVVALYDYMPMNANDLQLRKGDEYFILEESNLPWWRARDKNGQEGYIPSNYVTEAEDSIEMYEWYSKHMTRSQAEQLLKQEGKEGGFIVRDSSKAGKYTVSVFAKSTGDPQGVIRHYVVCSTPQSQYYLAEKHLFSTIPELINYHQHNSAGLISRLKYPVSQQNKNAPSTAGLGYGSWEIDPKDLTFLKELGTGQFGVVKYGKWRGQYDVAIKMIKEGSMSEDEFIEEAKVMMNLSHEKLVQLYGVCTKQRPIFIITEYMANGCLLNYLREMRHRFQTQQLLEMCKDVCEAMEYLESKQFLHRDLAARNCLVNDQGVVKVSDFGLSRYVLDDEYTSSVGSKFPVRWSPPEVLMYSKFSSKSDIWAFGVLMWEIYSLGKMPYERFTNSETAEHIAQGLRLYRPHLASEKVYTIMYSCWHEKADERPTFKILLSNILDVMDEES
T1 sequence (Q06187 whole entry C481S): as the sequence (Q06187 whole entry) above, with C481S counted along it

Cc1c(-c2ccc(C(N)=O)c3[nH]c4cc(C(C)(C)O)ccc4c23)cccc1-n1cnc2ccccc2c1=O [BMS-935177]
BTK phosphorylation after inhibitor wash out [1]: regained BTK phosphorylation

C=CC(=O)N1CCC[C@@H](n2nc(-c3ccc(Oc4ccccc4)cc3)c3c(N)ncnc32)C1 [Ibrutinib]
apoptosis (Annexin V and propidium incorporation) [2]: mild effect
IC50 ([3]; read-out: IC50, JeKo-1 BTK C481S): 38 µM
IC50 ([3]; read-out: IC50, anti-proliferative activity, JeKo-1 BTK C481S): 38.4 µM
BTK phosphorylation after inhibitor wash out [1]: retained inhibition of BTK phosphorylation
apoptosis (Annexin V and propidium incorporation) [4]: no significant effect
IC50 [5]: 2440 nM
median progression free survival [6]: ~ 14 months
overall response rate [6]: 68%
patients reaching a complete response [6]: 21%
IC50 [7]: 24.8 µM
IC50 ([8]; read-out: IC50, Mino BTK C481S): 6 µM
IC50 ([8]; read-out: IC50, anti-proliferative activity, Mino BTK C481S): 6.36 µM

Cc1sc2c(c1C)C(c1ccc(Cl)cc1)=N[C@@H](CC(=O)OC(C)(C)C)c1nnc(C)n1-2 [JQ1]
IC50, BTK C481S [9]: no activity
IC50 [10]: > 50 µM
IC50, BTK WT [11]: no activity
IC50 [12]: > 50 µM
IC50 [13]: > 50 µM

CN[C@@H]1C[C@H]2O[C@@](C)([C@@H]1OC)n1c3ccccc3c3c4c(c5c6ccccc6n2c5c31)C(=O)NC4 [Staurosporine]
IC50, PI3Kγ [10]: no activity
IC50, PI3Kδ [12]: no activity
IC50, PI3Kα [13]: no activity
